Consider six compounds from ChEMBL document CHEMBL1671815, “A practical use of ligand efficiency indices out of the fragment-based approach: ligand efficiency-guided lead identification of soluble epoxide hydrolase inhibitors” (J Med Chem, 2011).

Data set [1] concerns Liver microsomes. Put plainly: Intrinsic clearance in human liver microsome measured per mg of protein. The data set is classed as ADME.
Data set [2] has as its system Liver microsomes. As to the kind of experiment: Intrinsic clearance in rat liver microsome measured per mg of protein. The data set is classed as ADME.
For data set [3], the target named is Cytochrome P450 2C19 (Homo sapiens, UniProt P33261). Put plainly: Inhibition of CYP2C19. In kind it is ADME.
Cytochrome P450 2C19, sequence (P33261 whole entry): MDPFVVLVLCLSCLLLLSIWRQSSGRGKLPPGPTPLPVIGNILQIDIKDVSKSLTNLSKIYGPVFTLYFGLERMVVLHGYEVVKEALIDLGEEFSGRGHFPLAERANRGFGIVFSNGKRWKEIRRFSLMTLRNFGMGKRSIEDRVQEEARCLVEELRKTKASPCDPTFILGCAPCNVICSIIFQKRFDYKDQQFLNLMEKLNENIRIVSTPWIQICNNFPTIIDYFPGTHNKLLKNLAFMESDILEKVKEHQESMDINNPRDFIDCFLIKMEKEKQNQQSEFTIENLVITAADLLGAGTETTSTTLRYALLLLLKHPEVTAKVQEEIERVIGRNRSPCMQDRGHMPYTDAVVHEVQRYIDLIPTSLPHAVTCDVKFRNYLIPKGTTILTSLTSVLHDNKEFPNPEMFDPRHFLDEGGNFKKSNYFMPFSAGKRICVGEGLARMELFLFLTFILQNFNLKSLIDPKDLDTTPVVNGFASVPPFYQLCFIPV
The target in data set [4] is T1, Bifunctional epoxide hydrolase 2 (Homo sapiens, UniProt P34913).
T1 sequence (P34913 whole entry): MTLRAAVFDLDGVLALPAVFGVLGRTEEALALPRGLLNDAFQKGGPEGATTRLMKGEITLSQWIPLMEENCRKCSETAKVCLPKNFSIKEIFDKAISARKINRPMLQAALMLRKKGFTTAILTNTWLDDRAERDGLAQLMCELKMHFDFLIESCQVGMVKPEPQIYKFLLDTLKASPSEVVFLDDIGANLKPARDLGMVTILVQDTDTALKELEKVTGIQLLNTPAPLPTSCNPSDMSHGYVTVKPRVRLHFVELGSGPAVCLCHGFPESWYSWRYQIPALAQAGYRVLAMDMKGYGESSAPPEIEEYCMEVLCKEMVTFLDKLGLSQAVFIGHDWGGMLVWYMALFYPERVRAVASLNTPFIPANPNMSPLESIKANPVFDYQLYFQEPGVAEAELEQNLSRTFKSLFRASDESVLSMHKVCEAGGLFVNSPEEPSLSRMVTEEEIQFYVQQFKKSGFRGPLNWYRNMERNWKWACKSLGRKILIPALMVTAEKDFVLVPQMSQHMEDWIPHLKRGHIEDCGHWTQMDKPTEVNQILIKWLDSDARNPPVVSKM
Put plainly: Inhibition of human soluble epoxide hydrolase in cell free system.

Data set [5] deals with T2, Bifunctional epoxide hydrolase 2 (Rattus norvegicus, UniProt P80299).
T2 sequence (P80299 whole entry): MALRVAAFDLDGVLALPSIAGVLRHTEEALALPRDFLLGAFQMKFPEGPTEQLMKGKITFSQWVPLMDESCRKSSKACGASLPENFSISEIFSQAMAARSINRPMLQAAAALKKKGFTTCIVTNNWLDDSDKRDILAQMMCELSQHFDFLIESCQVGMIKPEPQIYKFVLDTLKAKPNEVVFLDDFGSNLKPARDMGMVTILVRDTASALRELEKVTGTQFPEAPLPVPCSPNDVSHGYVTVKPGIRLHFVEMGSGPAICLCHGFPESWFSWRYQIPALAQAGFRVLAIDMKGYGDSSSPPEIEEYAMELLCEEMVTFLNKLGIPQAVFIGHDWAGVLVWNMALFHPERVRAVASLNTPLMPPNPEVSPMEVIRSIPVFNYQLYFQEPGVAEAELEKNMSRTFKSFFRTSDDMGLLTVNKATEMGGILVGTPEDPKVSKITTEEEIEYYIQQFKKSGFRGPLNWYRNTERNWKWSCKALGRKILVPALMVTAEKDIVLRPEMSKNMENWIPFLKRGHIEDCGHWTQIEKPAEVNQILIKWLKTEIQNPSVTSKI
Put plainly: Inhibition of rat soluble epoxide hydrolase in cell free system.

Data set [6] addresses T1, Bifunctional epoxide hydrolase 2. As to the kind of experiment: Inhibition of soluble epoxide hydrolase in human HepG2 cells after 30 mins. The data set is classed as cell-based.
The nature of data set [7]: Aqueous solubility of the compound at pH 7.4. The data set is classed as physicochemical.
Data set [8] concerns HepG2. As to the kind of experiment: Cytotoxicity against human HepG2 cells up to 100 uM. The data set is classed as cell-based.
For data set [9], the target named is T3, Cytochrome P450 1A2 (Homo sapiens, UniProt P05177).
T3 sequence (P05177 whole entry): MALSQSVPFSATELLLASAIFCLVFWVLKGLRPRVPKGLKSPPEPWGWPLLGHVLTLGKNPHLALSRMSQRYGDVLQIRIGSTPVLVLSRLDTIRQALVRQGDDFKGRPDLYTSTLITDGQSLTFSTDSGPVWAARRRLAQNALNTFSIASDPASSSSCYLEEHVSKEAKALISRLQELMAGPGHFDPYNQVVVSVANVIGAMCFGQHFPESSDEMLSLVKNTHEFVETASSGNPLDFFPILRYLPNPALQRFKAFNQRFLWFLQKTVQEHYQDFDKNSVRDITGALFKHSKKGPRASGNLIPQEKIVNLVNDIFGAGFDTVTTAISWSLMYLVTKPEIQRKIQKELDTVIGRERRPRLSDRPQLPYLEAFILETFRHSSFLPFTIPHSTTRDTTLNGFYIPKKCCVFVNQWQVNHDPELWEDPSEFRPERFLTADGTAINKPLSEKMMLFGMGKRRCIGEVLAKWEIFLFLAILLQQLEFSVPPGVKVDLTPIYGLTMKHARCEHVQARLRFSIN
Put plainly: Inhibition of CYP1A2. The data set is classed as ADME.

In the case of `COc1cccc2c1CC(C(=O)N[C@H]1C[C@@H]1c1ccccc1)CC2` (mixture of isomers), the CL in data set [1] and in data set [2] was above 100 µL/min/mg throughout. Moreover, the IC50 (in general, the midpoint of a concentration-inhibition curve) in data set [3] is below 10000 nM; in [4], 6.46 nM; in data set [5] it was 3.02 nM; in data set [6] it was 4.68 nM. The solubility (as a rule, the dissolved amount per volume that the medium holds) in [7] is below 1 µg/mL.
As for `CC(C)c1noc(C2CCN(C(=O)N[C@H]3C[C@@H]3c3ccccc3)CC2)n1` (racemic), the Activity entry in data set [8] is “Non-toxic”. The IC50 in data set [5] was determined as 13 nM.
Regarding `O=C(N[C@H]1C[C@@H]1c1ccccc1)c1ccc2nonc2c1` (racemic), the IC50 in data set [3] is below 10000 nM; in data set [4], 61.7 nM; in [5], 240 nM. Besides, the solubility in data set [7] was below 1 µg/mL.
With `Cc1nc2cc(NC(=O)N[C@H]3C[C@@H]3c3ccccc3)ccc2o1` (racemic), the CL in data set [1] and in data set [2] was above 100 µL/min/mg each time. The half-maximal inhibitory concentration (IC50) in [4] was 39.8 nM; in [5] it was 20 nM; in data set [6] it was 81.3 nM. In addition, the solubility in [7] is below 1 µg/mL.
As to `CN(C)c1ccc(CNC(=O)N[C@H]2C[C@@H]2c2ccccc2)cc1` (racemic), the CL in [2] is above 100 µL/min/mg. Moreover, the results for the IC50 in [9], in data set [3] and in data set [4] were below 10000 nM, below 10000 nM and 30.2 nM, respectively.
Regarding `O=C(NC1CCN(c2ccccc2)CC1)N[C@H]1C[C@@H]1c1ccccc1` (racemic), the CL in data set [2] was above 100 µL/min/mg. The IC50 was 2.29 nM in data set [4], 1.7 nM in [5] and 7.94 nM in [6]. In addition, the solubility in data set [7] was below 1 µg/mL.
